From ChEMBL document CHEMBL3351363 (J Med Chem, 2014) come the findings set out here.

By Ki is commonly meant a dissociation constant, usually derived from enzyme kinetics or from competition with a known ligand. Lower therefore signals tighter binding. For orientation: Emax means the greatest response seen or fitted, relative to the assay's reference. Usually IC50 stands for the concentration at which inhibition is half-maximal.

In test [1] the target is T1, Muscarinic acetylcholine receptor M1 (Homo sapiens, UniProt P11229).
T1 sequence (P11229 whole entry): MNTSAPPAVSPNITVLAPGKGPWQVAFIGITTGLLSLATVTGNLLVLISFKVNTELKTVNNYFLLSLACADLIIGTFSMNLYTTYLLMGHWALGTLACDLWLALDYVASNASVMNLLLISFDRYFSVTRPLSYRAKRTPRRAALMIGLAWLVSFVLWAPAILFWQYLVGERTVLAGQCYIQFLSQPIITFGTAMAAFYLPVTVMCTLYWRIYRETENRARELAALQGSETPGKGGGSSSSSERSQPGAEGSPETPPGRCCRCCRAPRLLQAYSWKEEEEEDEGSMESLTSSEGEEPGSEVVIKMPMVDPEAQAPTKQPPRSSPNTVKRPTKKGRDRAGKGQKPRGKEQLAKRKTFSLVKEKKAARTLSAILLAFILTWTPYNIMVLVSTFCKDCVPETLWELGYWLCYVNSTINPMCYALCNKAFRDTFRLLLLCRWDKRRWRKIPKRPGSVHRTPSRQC
As to the kind of experiment: Displacement of [3H]NMS from human M1 receptor expressed in CHO cells by microplate scintillation counting based radioligand binding assay. In kind it is cell-based.

The target in test [2] is T2, Muscarinic acetylcholine receptor M5 (Homo sapiens, UniProt P08912).
T2 sequence (P08912 whole entry): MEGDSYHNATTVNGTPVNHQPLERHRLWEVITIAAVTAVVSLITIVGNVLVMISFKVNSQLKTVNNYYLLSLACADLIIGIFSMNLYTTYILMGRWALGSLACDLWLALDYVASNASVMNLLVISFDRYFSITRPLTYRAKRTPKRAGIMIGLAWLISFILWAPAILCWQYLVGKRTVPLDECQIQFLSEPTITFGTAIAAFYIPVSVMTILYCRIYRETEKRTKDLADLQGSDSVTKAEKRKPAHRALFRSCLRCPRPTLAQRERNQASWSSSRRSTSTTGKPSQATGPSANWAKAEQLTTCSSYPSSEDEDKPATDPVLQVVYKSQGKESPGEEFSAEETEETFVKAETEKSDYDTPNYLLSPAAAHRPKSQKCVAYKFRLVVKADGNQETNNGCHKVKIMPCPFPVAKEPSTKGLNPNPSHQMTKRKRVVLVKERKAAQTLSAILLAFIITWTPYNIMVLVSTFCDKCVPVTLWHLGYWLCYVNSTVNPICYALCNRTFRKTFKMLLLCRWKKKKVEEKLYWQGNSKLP
Briefly: Displacement of [3H]NMS from human M5 receptor expressed in CHO cells by microplate scintillation counting based radioligand binding assay. In kind it is cell-based. On the technique in general: Loss of bound radioactivity is the signal in a displacement assay; it reports binding, not function.

For test [3], the target named is T3, Muscarinic acetylcholine receptor M1 (Homo sapiens) (UniProt P11229).
T3 sequence (whole entry): T1 sequence (P11229 whole entry)
As to the kind of experiment: Agonist activity at human M1 receptor expressed in HEK293T cells by BRET based Gq protein activation assay relative to carbachol. The settings on record: HEK-293T. The test is classed as cell-based. For orientation: Bioluminescence resonance energy transfer reports proximity on the nanometre scale.

Test [4] has as its target T3, Muscarinic acetylcholine receptor M1 (Homo sapiens). Briefly: Agonist activity at human M1 receptor expressed in HEK293T cells by BRET based beta-arrestin engagement assay relative to carbachol. The test is classed as cell-based. The settings on record: HEK-293T.
Test [5] has as its target T4, Muscarinic acetylcholine receptor M4 (Homo sapiens) (UniProt P08173).
T4 sequence (whole entry): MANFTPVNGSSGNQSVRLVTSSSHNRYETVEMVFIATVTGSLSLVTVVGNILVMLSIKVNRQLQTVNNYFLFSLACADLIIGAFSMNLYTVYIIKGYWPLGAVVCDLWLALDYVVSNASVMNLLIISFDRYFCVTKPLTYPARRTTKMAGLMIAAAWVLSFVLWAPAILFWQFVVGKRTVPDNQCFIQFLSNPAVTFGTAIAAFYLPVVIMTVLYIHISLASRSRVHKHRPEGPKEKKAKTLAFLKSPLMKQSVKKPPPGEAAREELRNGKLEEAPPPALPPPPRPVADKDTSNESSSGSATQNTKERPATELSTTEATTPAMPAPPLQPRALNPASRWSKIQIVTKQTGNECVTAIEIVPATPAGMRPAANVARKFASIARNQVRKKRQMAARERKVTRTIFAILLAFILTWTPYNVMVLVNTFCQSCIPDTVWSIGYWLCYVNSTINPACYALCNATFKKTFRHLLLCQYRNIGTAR
Briefly: Antagonist activity at human M4 receptor expressed in HEK293T cells assessed as inhibition of carbachol-induced response by BRET based Gq protein engagement assay relative to untreated control. In kind it is cell-based. The settings on record: HEK-293T.

For test [6], the target named is T5, Muscarinic acetylcholine receptor M4 (Homo sapiens, UniProt P08173).
T5 sequence (P08173 whole entry): T4 sequence (whole entry)
Briefly: Antagonist activity at human M4 receptor expressed in HEK293T cells assessed as inhibition of carbachol-induced response by beta-arrestin engagement assay. The test is classed as cell-based, HEK-293T.

For test [7], the target named is T1, Muscarinic acetylcholine receptor M1.
For test [8], the target named is T5, Muscarinic acetylcholine receptor M4.
Test [9] concerns the target T4, Muscarinic acetylcholine receptor M4 (Homo sapiens). Briefly: Antagonist activity at human M4 receptor expressed in HEK293T cells assessed as inhibition of carbachol-induced response by BRET based Gi protein activation assay relative to untreated control. The settings on record: HEK-293T.

On to `CCCCC1CCN(CCCN2C(=O)CCc3ccccc32)CC1`, for which the values for the Ki in [1] and in test [2] were 0.316 µM and 5.37 µM, respectively. Besides, the Emax in [3] amounted to 57%; in test [4] it was 32%. Also, the Imax in test [5] stood at 86%; in test [9], 55%. Moreover, the values for the IC50 in [6], in test [7] and in test [8] were 0.178 µM, 1.58 µM and 47.9 µM, respectively.
